≈ marks a conversion by molar mass, not a printed value.
How the values were obtained:
[1] = system: Paracoccidioides brasiliensis; assay: Antifungal activity against Paracoccidioides brasiliensis Pb18 after 7 days by microbroth dilution assay; format: functional; settings: 168 h
Cryptococcus neoformans = assay: Antifungal activity against Cryptococcus neoformans ATCC 24067 after 72 hrs by microbroth dilution assay; format: functional; settings: ATCC 24067, 72 h
Pichia kudriavzevii = assay: Antifungal activity against Candida krusei ATCC 20298 after 48 hrs by microbroth dilution assay; format: functional; settings: ATCC 20298, 48 h
Candida tropicalis = assay: Antifungal activity against Candida tropicalis ATCC 750 after 48 hrs by microbroth dilution assay; format: functional; settings: ATCC 750, 48 h
Candida parapsilosis = assay: Antifungal activity against Candida parapsilosis ATCC 22019 after 48 hrs by microbroth dilution assay; format: functional; settings: Lodderomyces parapsilosis, ATCC 22019, 48 h
[2] = system: Cryptococcus bacillisporus; assay: Antifungal activity against Cryptococcus gattii ATCC 32608 after 72 hrs by microbroth dilution assay; format: functional; settings: ATCC 32608, 72 h
Candida albicans = assay: Antifungal activity against Candida albicans ATCC 18804 after 48 hrs by microbroth dilution assay; format: functional; settings: ATCC 18804, 48 h
HEK293 = assay: Cytotoxicity against human HEK293 cells after 72 hrs by MTT assay; format: cell-based; settings: HEK293, 72 h
[3] = Cytotoxicity against human HEK293 cells assessed as cell viability at 250 uM after 72 hrs by MTT assay relative to control; format: cell-based; settings: read-out: Activity

COc1cc(/C=C/C(C)=N/Nc2nc(-c3ccc(Cl)cc3)cs2)ccc1O
MIC [1]: 62.5 µM (≈ 25 µg/mL)
MIC (Cryptococcus neoformans): 250 µM (≈ 100 µg/mL)
MIC (Pichia kudriavzevii): 250 µM (≈ 100 µg/mL)
MIC (Candida tropicalis): 250 µM (≈ 100 µg/mL)
MIC (Candida parapsilosis): 250 µM (≈ 100 µg/mL)
MIC [2]: 125 µM (≈ 50 µg/mL)
MIC (Candida albicans): 250 µM (≈ 100 µg/mL)

CC(C)(C)/C=N/Nc1nc(-c2ccccc2)cs1
MIC [1]: 125 µM (≈ 32.4 µg/mL)
MIC (Cryptococcus neoformans): 1.9 µM (≈ 0.493 µg/mL)
MIC (Pichia kudriavzevii): 5.8 µM (≈ 1.5 µg/mL)
MIC (Candida tropicalis): 31.2 µM (≈ 8.09 µg/mL)
MIC (Candida parapsilosis): 3.9 µM (≈ 1.01 µg/mL)
MIC [2]: 1.9 µM (≈ 0.493 µg/mL)
MIC (Candida albicans): 3.9 µM (≈ 1.01 µg/mL)

Clc1ccc(-c2csc(N/N=C/C=C/c3ccccc3)n2)cc1
MIC [1]: > 250 µM
MIC (Cryptococcus neoformans): > 250 µM
MIC (Pichia kudriavzevii): > 250 µM
MIC (Candida tropicalis): > 250 µM
MIC (Candida parapsilosis): > 250 µM
MIC [2]: > 250 µM
MIC (Candida albicans): > 250 µM

COc1cc(/C=C/C(C)=N/NC(N)=S)ccc1O
MIC [1]: > 250 µM
MIC (Cryptococcus neoformans): > 250 µM
MIC (Pichia kudriavzevii): > 250 µM
MIC (Candida tropicalis): > 250 µM
MIC (Candida parapsilosis): > 250 µM
MIC [2]: > 250 µM
MIC (Candida albicans): > 250 µM

C/C(=N\Nc1nc(-c2ccc(Cl)cc2)cs1)c1ccc(N)cc1
MIC [1]: > 250 µM
MIC (Cryptococcus neoformans): > 250 µM
MIC (Pichia kudriavzevii): > 250 µM
MIC (Candida tropicalis): > 250 µM
MIC (Candida parapsilosis): > 250 µM
MIC [2]: > 250 µM
MIC (Candida albicans): > 250 µM

COc1ccc(-c2csc(N/N=C(C)/C=C/c3ccc(O)c(OC)c3)n2)cc1
MIC (Cryptococcus neoformans): 250 µM (≈ 98.9 µg/mL)
MIC (Pichia kudriavzevii): 250 µM (≈ 98.9 µg/mL)
MIC (Candida tropicalis): 250 µM (≈ 98.9 µg/mL)
MIC (Candida parapsilosis): 250 µM (≈ 98.9 µg/mL)
MIC [2]: 250 µM (≈ 98.9 µg/mL)
MIC (Candida albicans): 250 µM (≈ 98.9 µg/mL)

COc1cc(/C=C/C(C)=N/Nc2nc(-c3ccccc3)cs2)ccc1O
MIC [1]: 250 µM (≈ 91.4 µg/mL)
MIC (Cryptococcus neoformans): 250 µM (≈ 91.4 µg/mL)
MIC (Pichia kudriavzevii): 250 µM (≈ 91.4 µg/mL)
MIC (Candida tropicalis): 250 µM (≈ 91.4 µg/mL)
MIC (Candida parapsilosis): 250 µM (≈ 91.4 µg/mL)
MIC [2]: 250 µM (≈ 91.4 µg/mL)
MIC (Candida albicans): 250 µM (≈ 91.4 µg/mL)

CC(C)(C)/C=N/NC(N)=S
MIC [1]: > 250 µM
MIC (Cryptococcus neoformans): > 250 µM
MIC (Pichia kudriavzevii): > 250 µM
MIC (Candida tropicalis): > 250 µM
MIC (Candida parapsilosis): > 250 µM
MIC [2]: > 250 µM
MIC (Candida albicans): > 250 µM

CCC/C(CC)=N/NC(N)=S
MIC [1]: > 250 µM
MIC (Cryptococcus neoformans): > 250 µM
MIC (Pichia kudriavzevii): > 250 µM
MIC (Candida tropicalis): > 250 µM
MIC (Candida parapsilosis): > 250 µM
MIC [2]: > 250 µM
MIC (Candida albicans): > 250 µM

C[C@@H]1[C@H](O)[C@@H](C)/C=C/C=C/C=C/C=C/C=C/C=C/C=C/[C@H](O[C@@H]2O[C@H](C)[C@@H](O)[C@H](N)[C@@H]2O)C[C@@H]2O[C@](O)(C[C@@H](O)C[C@@H](O)[C@H](O)CC[C@@H](O)C[C@@H](O)CC(=O)O[C@H]1C)C[C@H](O)[C@H]2C(=O)O [AMPHOTERICIN B]
MIC [1]: 0.06 µM (≈ 0.0554 µg/mL)
IC50 (HEK293): 78.6 µM
MIC (Cryptococcus neoformans): 0.09 µM (≈ 0.0832 µg/mL)
MIC (Pichia kudriavzevii): 0.5 µM (≈ 0.462 µg/mL)
MIC (Candida tropicalis): 1.2 µM (≈ 1.11 µg/mL)
MIC (Candida parapsilosis): 0.5 µM (≈ 0.462 µg/mL)
MIC [2]: 0.08 µM (≈ 0.0739 µg/mL)
MIC (Candida albicans): 0.3 µM (≈ 0.277 µg/mL)

OC(Cn1cncn1)(Cn1cncn1)c1ccc(F)cc1F [FLUCONAZOLE]
IC50 (HEK293): > 250 µM
MIC (Cryptococcus neoformans): 6.2 µM (≈ 1.9 µg/mL)
MIC (Pichia kudriavzevii): 104 µM (≈ 32 µg/mL)
MIC (Candida tropicalis): 6.5 µM (≈ 1.99 µg/mL)
viability at 72 h, 250 µM [3]: 99.2%
MIC (Candida parapsilosis): 3.2 µM (≈ 0.98 µg/mL)
MIC [2]: 12.7 µM (≈ 3.89 µg/mL)
MIC (Candida albicans): 1.6 µM (≈ 0.49 µg/mL)

CCC(C)n1ncn(-c2ccc(N3CCN(c4ccc(OCC5COC(Cn6cncn6)(c6ccc(Cl)cc6Cl)O5)cc4)CC3)cc2)c1=O (configuration not stated) [ITRACONAZOLE]
MIC [1]: 0.06 µM (≈ 0.0423 µg/mL)
IC50 (HEK293): > 250 µM
MIC (Cryptococcus neoformans): 0.04 µM (≈ 0.0282 µg/mL)
MIC (Pichia kudriavzevii): 0.18 µM (≈ 0.127 µg/mL)
MIC (Candida tropicalis): 0.09 µM (≈ 0.0635 µg/mL)
viability at 72 h, 250 µM [3]: 90.8%
MIC (Candida parapsilosis): 0.18 µM (≈ 0.127 µg/mL)
MIC [2]: 0.18 µM (≈ 0.127 µg/mL)
MIC (Candida albicans): 0.7 µM (≈ 0.494 µg/mL)
